In patent US9593069B2, “Cyclohexane-1,3-diones for use in the treatment of amyotrophic lateral sclerosis” (Northwestern University, priority 2009, dated 2017):
pEC50, pIC50: −log10 of the molar value. ≈ marks a conversion by molar mass, not a printed value. Read-outs that look alike come from different tables or passages of the source. Each block holds one molecule with its values, some of them ahead of it. Peptide text beside a SMILES is read from it. * marks the point of attachment. Cbz = O=C(OCc1ccccc1)*

What was measured:
[1] = tested on: PC12 cells that express mutant G93A SOD1; assay: High throughput cytotoxicity protection assay (PC12 Protection Assay); type: cell-based
From the text: Cultured cells are utilized to conduct high throughput assays for compounds that protect against mutant SOD1-induced cytotoxicity. Two assays are used: first, in the cytotoxicity protection assay, compounds are screened for their ability to protect cells from the cytotoxic effects of aggregated mutant SOD1, irrespective of mechanism of drug action. Second, in the protein aggregation assay, compounds are screened for their ability to reduce aggregation of mutant SOD1. The high throughput cytotoxicity protection assay is the primary screen and compounds active in the primary screen (and their analogs) move forward into the secondary screen for protein aggregation.
(§1) The high throughput cytotoxicity protection assay was carried out in PC12 cells that express mutant G93A SOD1 as a YFP fusion protein from a doxycycline-inducible promoter (Matsumoto et al., J. Cell. Biol. 2005, 171, 75). […] This idea was tested by examining the sensitivity of PC12 cells to SOD1 aggregates in the presence and absence of proteasome inhibitor MG132. PC12 cells expressing no SOD1, wild type SOD1, G85R SOD1 or G93A SOD1 were grown with or without MG132 (FIG. 1). Cells expressing no SOD1, wild type SOD1 and G85R SOD1 were relatively insensitive to MG132, with an IC50 of approximately 400 nM. […] In these cells, protein aggregation was detected after 24 h and loss of cell viability was detected at approximately 48 h. […] The ability of protein aggregates to induce cell death was examined by treating G93A SOD1-expressing cells with MG132 for 24 h, removing the MG132 by washing and assaying cell viability after another 24 h. Because the loss of cell viability was similar following MG132 removal (FIG. 1, part C), it is likely that mutant SOD1 aggregates contribute directly to cytotoxicity in PC12 cells.
(§2) PC12 cells expressing G93A SOD1 were treated with 100 nM MG132 with or without co-treatment with geldanamycin or radicicol. […] Statistical analysis of the data produced a Z′ value of 0.55, which would predict good performance as a positive control in a high throughput screen (Zhang et al., J. Biomol. Screen 1999, 4(2), 67-73).

[2] = tested on: PC12 cells expressing G93A mutant SOD1; assay: Mutant SOD1 direct protein aggregation assay; type: cell-based
Description: as §2
(§3) In PC12 cells that express wild-type SOD1, SOD1 was diffusely localized throughout the cell (Matsumoto et al., J. Cell. Biol 2005, 171(1), 75-85). […] Therefore, these effects are likely to be due to MG132-induced proteasome inhibition, and not due to an off-target effect of MG132.
(§4) The identification of a positive control is a crucial step in assay development. Thus, PC12 cells expressing G85R or G93A mutant SOD1 were treated with MG132 to induce protein aggregation, and then co-treated with candidate chemical suppressors of protein aggregation. […] Both compounds induce heat shock transcription factor HSF-1, which in turn induces the heat shock response (FIG. 4). Treatment with radicicol reduced the proportion of cells with aggregates from 75% to 25%, a sufficient difference to allow visual scoring for compounds with efficacy equal to or greater than radicicol.

[3] = tested on: PC12 cells expressing G85R SOD1; assay: Mutant SOD1 direct protein aggregation assay; type: cell-based
From the text: Compounds that are active in the above assay could theoretically protect against mutant SOD1-induced cytotoxicity through a number of mechanisms, including the following: 1) Compounds could nonspecifically block or reverse protein aggregation via chaperone induction, as observed for radicicol and geldanamycin 2) Compounds could block or reverse the aggregation of a specific aggregated protein form 3) Compounds could interfere with an event downstream of protein aggregation that plays a critical role in mutant SOD1-induced cytotoxicity (e.g., proteasome function). 4) Compounds could act directly on SOD1 in a manner that prevents mutant SOD1 aggregation. These possibilities were tested using an assay that directly measures protein aggregation. In addition, unlike the high throughput cytotoxicity protection assay, the protein aggregation assay is based on G85R SOD1; this broadens the scope of the screening strategy, and should eliminate compounds with highly specific activity (i.e., G93A SOD1 limited) against protein aggregation.
as §3, §4
To allow this assay to be used in a high-throughput manner, a Cellomics Arrayscan® high content microscopy system was used for screening and quantification. […]

[4] = tested on: PC12 cells expressing wild-type SOD1; assay: Mutant SOD1 direct protein aggregation assay; type: cell-based
From the text: as §3

[5] = tested on: PC12 cells expressing G93A SOD1; assay: MG132 sensitivity, cell survival by viability stain calcein-AM; type: cell-based; details: for toxicity (cell survival): 100 nM
Description: (§5) FIGS. 1A-C. Proteasome inhibition is selectively toxic to PC12 cells expressing mutant G93A SOD1. Cell survival was determined using the viability stain calcein-AM.
as §1

[6] = tested on: PC12 cells expressing no SOD1, wild type SOD1 and G85R SOD1; assay: as above; type: cell-based; details: Rattus norvegicus, PC-12, read-out: IC50 (loss of cell viability)
Description: as §5, §1

[7] = tested on: primary cortical neurons; assay: Neuronal penetration assay (protection from MG132 toxicity); type: cell-based; details: for Different from control at 5 SD*: primary cortical neurons, toxic dose of MG132, 5 SD = Standard Deviation (5σ)
Description: Neurons are a highly differentiated cell type, and it has been commonly observed that many chemical structures are unable to penetrate into these cells. In many embodiments, a drug used to treat a neurodegenerative disease should desirably penetrate into neurons.
A neuronal penetration assay was developed as follows. […] In order to determine if this compound could protect primary cortical neurons from MG132 toxicity primary cortical neurons were treated with a toxic dose of MG132 together with various concentrations of 5-(3,5-bis(trifluoromethyl)phenyl)cyclohexane-1,3-dione. […] Analogs of 5-(3,5-bis(trifluoromethyl)phenyl)cyclohexane-1,3-dione were then prepared and tested to determine whether chemical modifications would lead to a compound with neuronal cell penetrating ability. […] As summarized in Table 2 below, these analogs also retained protective activity against mutant SOD1 toxicity.

[8] = In vivo pharmacological properties
[9] = tested on: Caco-2; assay: Caco-2 permeability; type: in vitro ADME
Description: High membrane permeability is required for effective GI absorption and optimal bioavailability. Passive permeability is typically assessed in the PAMPA artificial membrane assay (Kansy et al., J. Med. Chem. 2002, 45(8), 1712-1722). Cell-based permeability determinations using the Caco-2 cell assay are more resource intensive but more predictive of active transport or efflux in vivo (Artursson et al., Adv. Drug. Deliv. Rev. 2001, 46(1-3), 27-43). Caco-2 assays are performed as needed during SAR development.

[10] = Solubility; type: physicochemical; details: aqueous solution
Description: Because compounds are stored in DMSO, it is necessary to determine aqueous solubility of initial hit compounds and their analogs. High solubility in aqueous solution is necessary for high GI absorption, bioavailability, and for chemical formulation. Compounds should be soluble in aqueous solution at >10 μg/ml. Solubility of >50 μg/ml is preferred.

[11] = Mouse metabolic potential; type: in vitro ADME
Description: (§6) Liver Cytochrome P450 (CYP450) enzymes are the major route for xenobiotic metabolism and microsomal and hepatocyte stability is the best predictor of pharmacokinetic half-life. Cross-species comparisons of metabolism in liver microsomes can predict potential issues with liver toxicity in humans. Selected active compounds are tested in liver microsomes from efficacy species (mouse), toxicity species (rat, dog, monkey), and humans for metabolic stability.

[12] = Plasma stability; type: in vitro ADME
Description: Plasma stability of active compounds is assessed in efficacy species (mouse), toxicity species (rat, dog, monkey), and human cells.

[13] = Human metabolic potential; type: in vitro ADME
Description: as §6

[14] = Rattus norvegicus, PC-12; read-out: PC12 Protection Assay (Average EC50)

Structure (SMILES): C[C@@H]1C[C@H]2O[C@@H]2/C=C\C=C\C(=O)Cc2c(Cl)c(O)cc(O)c2C(=O)O1 [radicicol]
- cell viability of G93A SOD1 cells under MG132 ([1]; co-treatment with 100 nM MG132): increased cell viability in a dose-dependent manner
- cell viability of G93A SOD1 cells under MG132 ([1]; co-treatment with 100 nM MG132; listed as Radicicol): protects
- formation of protein aggregates ([2]; G93A SOD1 cells, 100 nM MG132): reduced formation of protein aggregates
- suppression of MG132-induced mutant SOD1 aggregation ([3]; G93A or G85R SOD1 cells, MG132 co-treatment): aggregates are reduced
- proportion of cells with aggregates on co-treatment ([3]; PC12 cells expressing G85R or G93A mutant SOD1, MG132 co-treatment, 75% without): 25%

Structure (SMILES): CCCCCCCCCCC(=O)OC1=CC(=O)CC(c2cc(C(F)(F)F)cc(C(F)(F)F)c2)C1 (stereo not drawn)
- pEC50 [1, 14]: ~5.82

Structure (SMILES): O=C1CC(=O)CC(c2cc(C(F)(F)F)cc(C(F)(F)F)c2)C1 [drawing 215]
- pEC50 [1, 14]: ~5.82

Structure (SMILES): CC(C)C[C@@H](C=O)NC(=O)[C@H](CC(C)C)NC(=O)[C@H](CC(C)C)NC(=O)OCc1ccccc1 [MG132] (Cbz-Leu-Leu-Leu-aldehyde)
- protein aggregation after treatment [4]: no aggregation was observed
- toxicity (cell survival) ([5]; 24 hr, any of the cell lines): no toxicity
- toxicity (cell survival) ([5]; after 48 hours): selectively toxic to the G93A SOD1 cell line
- sensitivity of G93A SOD1 cells relative to the other cell lines ([5]; G93A SOD1 vs no SOD1, wild type SOD1, G85R SOD1 cells): approximately 5 fold
- pIC50 ([5]; Rattus norvegicus, PC-12, read-out: IC50 (loss of cell viability)): ~7.12
- pIC50 [6]: ~6.40
- cells with protein aggregates following treatment ([2]; cells expressing G93A mutant SOD1): 75%
- cells containing protein aggregates after treatment ([3]; cells expressing G85R SOD1): up to 75%

Structure (SMILES): CC(Oc1cc(C(F)(F)F)cc(C(F)(F)F)c1)C1CC(=O)CC(=O)C1 (stereo not drawn)
- Different from control at 5 SD* [7]: YES
- pEC50 ([1]; Rattus norvegicus, PC-12, read-out: PC12 Protection Assay (Average EC50)): ~5.40

- half-life ([8]; blood): ~3.5 h
- blood brain barrier penetration ([8]; in vivo): penetration of the blood brain barrier
- oral availability ([8]; in vivo, po): good oral availability
Structure (SMILES): O=C1CC(=O)CC(c2cc(C(F)(F)F)cc(C(F)(F)F)c2)C1 [5-(3,5-bis(trifluoromethyl)phenyl)cyclohexane-1,3-dione]
- protection of primary cortical neurons from MG132 toxicity ([7]; various concentrations, FIG. 6): no dose of this compound was effective in protecting the primary cortical neurons
- volume of distribution in vivo ([8]; in vivo): surprisingly small volume of distribution
- pEC50 ([1]; Rattus norvegicus, PC-12; read-out: potency): ~5.82
- protection of cultured PC12 cells / protective activity against mutant SOD1 toxicity ([1]; toxic effects of MG132): protects cultured PC12 cells from the toxic effects of MG132

Structure (SMILES): CC(C)C[C@H](NC(=O)[C@H](Cc1ccccc1)NC(=O)c1cnccn1)B(O)O [bortezomib]
- sensitivity of PC12 cell lines to proteasome inhibitor, compared with MG132 [5]: Qualitatively similar results

- Caco-2 predicted permeability [9]: high predicted permeability
- Caco-2 A − B ([9]; A − B): 38 ×10⁻⁶ cm/s
- solubility [10]: 500 µM (≈ 162 µg/mL)
- Mouse Metabolic Potential [11]: low
- half-life ([11]; liver microsomes, read-out: Mouse Metabolic Potential T1/2): > 3 h
- Plasma Stability [12]: medium
- Human Metabolic Potential [13]: low
- half-life ([13]; liver microsomes, read-out: Human Metabolic Potential T1/2): > 3 h
Structure (SMILES): O=C1CC(=O)CC(c2cc(C(F)(F)F)cc(C(F)(F)F)c2)C1 [drawing 217]
- pEC50 ([1]; Rattus norvegicus, PC-12; read-out: Potency (EC50)): 6.15

Structure (SMILES): O=C1CC(=O)CC(C2CC2c2cc(C(F)(F)F)cc(C(F)(F)F)c2)C1 (stereo not drawn)
- Different from control at 5 SD* [7]: YES
- pEC50 [1, 14]: ~5.46
